Source: patent publication US7589092B2, “Prodrugs of heteroaryl compounds” (Koronis Pharmaceuticals, Incorporated, priority 2003, dated 2009)

Key:
[1] = Bioavailability / pharmacokinetic study in dogs; type: in vivo, Canis familiaris; details: dog
Excerpt: This study tested the bioavailability of different test compounds in dogs, by intravenous or oral gavage administration, at prescribed dose levels. The animals tested in this study were Canis familiaris, from Harlan Sprague Dawley (Indianapolis, Ind.). Four dogs (2 males and 2 females), with an average age of seven months, were included in each test group. The dogs were identified by ear tattoos, and given a fourteen day acclimatization period prior to the commencement of testing. Dogs were group housed but separated by sex. The animal room environment was controlled and monitored daily. The temperature ranged from 18 to 29° C. and the relative humidity ranged from 30%-70%. The photocycle was 12 hours light and 12 hours dark. All animals were submitted to a general physical examination and only those found healthy were admitted for the study. All selected animals were given two days to adjust to laboratory conditions before the study began. Teklad Dog Diet was fed twice daily and water was constantly available to the dogs throughout the acclimatization and study periods. Twenty-four hours prior to the initiation of the study, animals were randomly selected into two groups with 1 male and 1 female in each group. […] Blood was collected from the v. cephalica antebrachii of each of the two animals prior to study initiation, at thirty minutes and at 1, 2, 4, and 12 hours after dosing. […] IV dosages of DHAdC, as well as oral dosages of prodrugs […] C9-DHAdC were recorded. The dogs were administered 50 mg/kg DHAdC or DHAdC equivalent in the case of prodrugs. The maximum concentration (Cmax), clearance (AUC∞), half-life (T1/2), and % Oral Bioavailability were recorded and are presented in Table 2: […]

[2] = Bioavailability / pharmacokinetic study in rats; type: in vivo; details: rat
Excerpt: This study tested the bioavailability of different test compounds in rats, by oral gavage administration, at prescribed dose levels. The animals tested in this study were Rattus norvegicus, CD strain, from Charles River Canada (Montreal, Canada). Six males were included in each test group. Their weight ranged from 200 to 250 grams before fasting. […] Rats were individually housed in Nalgene rat cages with stainless steel covers. The animal room environment was controlled and monitored daily. The temperature ranged from 18 to 26° C. and the relative humidity ranged from 30%-70%. The photocycle was 12 hours light and 12 hours dark. All animals were submitted to a general physical examination and only those found healthy were admitted for the study. All selected animals were given two days to adjust to laboratory conditions before the study began. Teklad rodent Diet and water were constantly available to the rats throughout the acclimatization and study periods. Forty-eight hours prior to the initiation of the study, animals were randomly selected and two subsets of 3 male rats per group were formed. Due to the large volume of blood taken, collections will be done by alternating timepoints between subsets. All animals were fasted for twelve hours prior to the initiation of the study. […] Blood was collected from the orbital sinus of animals from each group at thirty minutes and at 1, 2, 4, and 12 hours after dosing. At each blood collection time point, three rats per group were bled. […] Oral and IV dosages of DHAdC, as well as oral dosages of prodrugs C7-DHAdC and C9-DHAdC were recorded. The rats were administered 100 mg/kg DHAdC or DHAdC equivalent in the case of prodrugs. The maximum concentration (Cmax), clearance (AUC∞), half-life (T1/2), and % Oral Bioavailability were recorded and are presented in Table 1: […]

[3] = test concentration 100 um, RT, 60 minutes equilibration
Method: The compounds were first dissolved in a 60% methanol/40% water (v/v) solution containing 1% DMSO and brought to a concentration of 100 μM. The optimal detection wavelength was determined and calibration studies were performed with the solution. After calibration, the compounds were placed into n-octanol-PBS buffer at pH 7.4 at RT. The mixture was shaken and allowed to equilibrate for 60 minutes. The amount of compound in the PBS buffer phase was then determined by HPLC/UV-Vis. The amount of compound in n-octanol was determined by subtracting […]. This experiment was conducted for three samples. These three samples were then each corrected for volume and the results were averaged. Log D was calculated as the Log10 of the amount of compound in the n-octanol phase divided by the amount of compound in the buffer phase.
Lipophilicity is a major structural factor that influences the pharmacokinetic and pharmacodynamic behavior of compounds. In this assay, prodrugs C7-DHAdC, C8-DHAdC, and C9-DHAdC were partitioned between n-octanol and phosphate buffered saline (PBS).

[4] = deamination product of 5-aza-dC; Momparler et al.; cited from earlier work
HIV = details: Bouchard et al.; cited from earlier work
[5] = oral gavage, 50 mg/kg DHAdC equivalent
[6] = oral gavage, 100 mg/kg DHAdC or DHAdC equivalent
[7] = both sexes, blood, IV, 50 mg/kg DHAdC
[8] = male, CD, blood, IV, 100 mg/kg DHAdC
[9] = male, CD, blood, oral gavage, 100 mg/kg DHAdC or DHAdC equivalent

Row | AUC∞ [1, 5] | Cmax [1, 5] | Oral bioavailability [1, 5] [%] | T1/2 [1, 5] [h] | AUC∞ [2, 6] | Cmax [2, 6] | Oral bioavailability [2, 6] [%] | T1/2 [2, 6] [h] | log D n-Octanol PBS pH 7.4 [3] | Compound | other results
1 | 59,377 ng-hr/mL | 11,282 ng/mL | 51 | 2.1 | 32,101 ng-hr/mL | 5,577 ng/mL | 43 | 3.9 | 2.04 | CCCCCCCOC(=O)NC1=NC(=O)N([C@H]2C[C@H](O)[C@@H](CO)O2)CN1 [Compound C7-DHAdC, N^4-Heptyloxycarbonyl-β-2′-deoxy-5,6-dihydro-5-azacytidine] | 
2 |  |  |  |  |  |  |  |  |  | O=c1ncn([C@H]2C[C@H](O)[C@@H](CO)O2)c(=O)[nH]1 [Compound 5-aza-dU, 5-aza-2′-deoxyuridine] | antineoplastic activity [4]: loss of antineoplastic activity
3 | 54,540 ng-hr/mL | 8,932 ng/mL | 36 | 2.2 | 26,472 ng-hr/mL | 5,550 ng/mL | 35 | 3.6 | 3.16 | CCCCCCCCCOC(=O)NC1=NC(=O)N([C@H]2C[C@H](O)[C@@H](CO)O2)CN1 [Compound C9-DHAdC, N^4-Nonyloxycarbonyl-β-2′-deoxy-5,6-dihydro-5-azacytidine] | 
4 |  |  |  |  |  |  |  |  |  | Nc1ncn([C@H]2C[C@H](O)[C@@H](CO)O2)c(=O)n1 [Compound 5-aza-dC, 5-aza-2′-deoxycytidine] | HIV replication in vitro (HIV): inhibit HIV replication in vitro
5 |  |  |  |  |  |  |  |  |  | NC1=NC(=O)N([C@H]2C[C@H](O)[C@@H](CO)O2)CN1 [DHAdC, 5,6-dihydro-5-aza-2′-deoxycytidine] | AUC(0-inf) [1, 7]: 156000 ng·h/mL; half-life [1, 7]: 2.1 h; Cmax ([1]; both sexes, blood, IV, 50 mg/kg DHAdC, read-out: Cmax): 76300 ng/mL; AUC(0-inf) [2, 8]: 75000 ng·h/mL; half-life [2, 8]: 1.8 h; Cmax ([2]; male, CD, blood, IV, 100 mg/kg DHAdC, read-out: Cmax): 40000 ng/mL; AUC(0-inf) [2, 9]: 8540 ng·h/mL; bioavailability [2, 9]: 11%; half-life [2, 9]: 0.8 h; Cmax ([2]; male, CD, blood, oral gavage, 100 mg/kg DHAdC or DHAdC equivalent, read-out: Cmax): 1860 ng/mL
6 | 17,845 ng-hr/mL | 5,172 ng/mL | 11 | 2.8 |  |  |  |  | 2.56 | CCCCCCCCOC(=O)NC1=NC(=O)N([C@H]2C[C@H](O)[C@@H](CO)O2)CN1 [Compound C8-DHAdC, N^4-Octyloxycarbonyl-β-2′-deoxy-5,6-dihydro-5-azacytidine] | 
